Laboratory results taken from USRE47528E1, “Protease for wound conditioning and skin care” (B.R.A.I.N. BIOTECHNOLOGY RESEARCH AND INFORMATION NETWORK AG, priority 2009, dated 2019).
Entries after “also recorded” stand apart in the source; their conditions may differ.

Columns and labels:
[1] = system: Lucilia sericata debrilase (trypsin-like serine protease), mature protein SEQ ID NO: 4, pre-propeptide SEQ ID NO: 2; experiment: Enzyme kinetics of Debrilase, fluorometric assay with Z-Gly-Gly-Arg-AMC; assay type: biochemical
Description: (§1) Activity of the debrilase was measured in liquid assay using appropriate buffer systems in the range of 3-10 (0.1 to 0.2 M citric acid buffer, pH 3-7; 0.05 M tris buffer, pH 8; 0.1 M carbonate buffer, pH 9-10) and the fluorogenic substrate Z-Gly-Gly-Arg-AMC. The release of 7-amino-4-methylcoumarin (AMC) was measured with a BMC Novostar Fluorometer (λexcitation 365 nm, λemission 440 nm).
Molecular and Enzymatic Properties of Debrilase

[2] = system: larval secretions; conditions: cited from earlier work
[3] = system: debrilase; experiment: Liquid phase activity assay and inhibitory profiling (BODIPY-FL-Casein fluorescence assay); assay type: biochemical, Lucilia sericata; conditions: for inhibition of debrilase activity: PMSF 5 mmol/l, APMSF 1 mmol/l
Description: Quantification of proteolytic activity was conducted by a fluorescence assay in 96-well plates with BODIPY-FL-Casein (Molecular Probes) used as substrate. Hereby, on the undigested substrate casein the labelling molecules are in close contact to each other and therefore fluorescence is suppressed by a quenching mechanism. In case of hydrolysis these molecules separate from each other and fluorescence can be excited at 485 nm and measured at 520 nm.
A standard assay contained 5 μg/ml BODIPY-FL-Casein in 100 μl PBS buffer and a series of dilutions of protease extract. Samples were incubated for 60 min at 37° C. and fluorescence was measured using a spectrophotometer (NovoStar, BMG LABTECH, Offenburg, Germany), applying the following parameters: excitation 485 nm, emission 520 nm, gain 5, one cycle, 10 flashes. Serine protease inhibitors APMSF (4-amidinophenylmethanesulfonyl fluoride) and PMSF (phenylmethanesulfonyl fluoride) were used for testing the specificity of the isolated protease. The following assay concentration were used:
The recombinant protease type was identified in a liquid assay in a 96-well plate using inhibitors specific for different types of proteases. Herein, specific inhibitors for trypsin (4-amidinophenylmethyl-sulphonyl fluoride, APMSF), serine (phenylmethylsulphonyl fluoride, PMSF), aspartyl-(pepstatin A) and metallo-type proteases (1,10-phenanthroline) were measured.

[4] = system: Suc-Ala-Ala-Phe-AMC; experiment: Proteolytic activity against Suc-Ala-Ala-Phe-AMC; assay type: biochemical
[5] = target: T1, human PAR2 (Homo sapiens, UniProt P55085); experiment: Activation of PAR 2 (calcium imaging) in HEK293 cells; assay type: cell-based; conditions: HEK293 cells endogenously expressing human PAR2, Ca2+-flux read-out
T1 construct: wild type HEK293 cell line endogenously expressing human PAR2; endogenous in cells; host or cells: HEK293
T1 sequence (P55085 26-397): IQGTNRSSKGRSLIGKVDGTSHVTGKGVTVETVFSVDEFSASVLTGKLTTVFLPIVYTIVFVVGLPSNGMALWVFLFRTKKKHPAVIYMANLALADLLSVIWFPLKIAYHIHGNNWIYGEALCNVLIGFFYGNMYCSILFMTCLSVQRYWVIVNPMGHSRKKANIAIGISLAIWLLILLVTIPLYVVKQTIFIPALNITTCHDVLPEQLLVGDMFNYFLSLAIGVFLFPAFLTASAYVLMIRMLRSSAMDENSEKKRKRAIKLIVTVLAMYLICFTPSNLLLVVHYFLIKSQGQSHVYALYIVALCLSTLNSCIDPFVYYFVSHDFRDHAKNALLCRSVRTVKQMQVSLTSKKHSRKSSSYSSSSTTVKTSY
Description: The activity of debrilase as agonist of PAR 2 was monitored over time in a cell based fluorescence assay by use of a wild type HEK293 cell line endogenously expressing human PAR2. In brief, 1 day prior to performing the assay, HEK293 cells expressing human PAR2 were plated onto 96-well, black-walled, assay plates, at a density of 45,000 cells per well. Using a 96-well microplate reader (FlexStation®, Molecular Devices, Sunnyvale, Calif.), the change of the cellular calcium concentration was monitored by use of the calcium sensitive fluorescent dye fluo-4 (excitation 494 nm, emission 516 nm). The PAR 2 agonist trypsin (8 nM) was used as positive control. The dye-loaded cells in plates were placed into the fluorescence microplate reader to monitor fluorescence (excitation 488 nm, emission 520 nm) change after the addition of 50 μl assay buffer (118 mM NaCl; 4.7 mM KCl; 1.2 mM MgSO4; 1.2 mM KH2PO4 4.2 mM […]; 1.3 mM CaCl2; 10 mM HEPES (pH: 7.4)) supplemented with an agonist. Calcium mobilization was quantified as the change of peak fluorescence (ΔF) over the baseline level (F). Data were expressed as the mean S.E. of the ΔF/F value (=RFU, relative fluorescence units) of replicated independent samples. The analysis was done with the software of the FlexStation®.

[6] = system: casein; experiment: Diffusion assay on agar containing casein / skim milk; assay type: biochemical
From the text: FIG. 1: Diffusion assay on agar containing casein showing a clearing zone around a debrilase secreting clone of E. coli.
Colony forming units resulted from mass excision described above were screened on agar media containing 2% skim milk under selective conditions. Expression of heterologous proteases was driven by the vector comprising inducible Plac promoter. Colonies expressing heterologous proteases were detected by the formation of clearing zones in the turbid Skim Milk medium around the colonies.

[7] = system: fibrin; experiment: Solid phase activity assay for fibrinolytic activity (fibrin agar); assay type: biochemical; conditions: fibrin containing agar
Description: To identify fibrinolytic activity in extracts of casein degrading clones a solid agar assay was used. For this, a solution A containing 200 mg agarose, 87 mg NaCl and 3 mg CaCl2 were added to 10 ml 0.1 M Tris pH7.4 and incubated at 50° C. To a second solution B containing 10 ml 0.9% NaCl and 100 mg Fibrin (Sigma F3879), 20 μl Plasminogen (2 units/mg, Sigma P7397) e added and pre-incubated at 50° C. Both solutions were combined with 12 μl Thrombin (175-350 NIH units, Sigma T4265) and spread on agar plates using micro-well forming devices. In case of a fibrinolytic activity a clear zone appears in the opaque medium around extract containing cavities.
To identify fibrinolytic activity in casein degrading clones a solid agar assay was used. Therefore a medium A consisting of 10 ml 2× Luria Bertani containing 200 mg agarose, 87 mg NaCl and 3 mg CaCl2 was incubated at 50° C. To a solution B containing 10 ml 0.9% NaCl and 100 mg Fibrin (Sigma F3879), 20 μl plasminogen (2 units/mg, Sigma P7397) was added and pre-incubated at 50° C. […]
Fibrinolytic activity in cell free crude extracts was determined using buffered agar medium containing fibrin. […] Crude extract with fibrinolytic activity was detected by a clear zone around microwells of the recombinant clone harbouring the protease gene of SEQ ID NO. […]

[8] = system: Z-Gly-Gly-Arg-AMC; experiment: Fluorometric liquid assay using Z-Gly-Gly-Arg-AMC as substrate; assay type: biochemical
Description: as §1

[9] = system: Tosyl-Gly-Pro-Arg-AMC; experiment: Proteolytic activity against Tosyl-Gly-Pro-Arg-AMC; assay type: biochemical

Cc1cc(=O)oc2cc(NC(=O)[C@H](CCCNC(=N)N)NC(=O)CNC(=O)CNC(=O)OCc3ccccc3)ccc12 [Z-Gly-Gly-Arg-AMC]
Kcat ([1]; Table 1, substrate Z-Gly-Gly-Arg-AMC (footnote)): 37.5 s⁻¹
Km ([1]; substrate Z-Gly-Gly-Arg-AMC, fluorometric assay): 70 µM

O=S(=O)(F)Cc1ccccc1 [PMSF, phenylmethanesulfonyl fluoride]
inhibition of degradation of laminin and fibronectin by larval secretions [2]: inhibited
inhibition of proteolytic activity of debrilase against casein and fibrin [3]: inhibited
inhibition of debrilase activity [3]: inhibited completely

N=C(N)c1ccc(CS(=O)(=O)F)cc1 [APMSF, 4-amidinophenylmethanesulfonyl fluoride]
inhibition of degradation of laminin and fibronectin by larval secretions [2]: not significantly
inhibition of proteolytic activity of debrilase against casein and fibrin [3]: inhibited
inhibition of debrilase activity [3]: inhibited completely

c1cnc2c(c1)ccc1cccnc12 [1,10-phenanthroline]
inhibition of degradation of laminin and fibronectin by larval secretions [2]: not significantly

B1: debrilase: recombinant trypsin-like serine protease from Lucilia sericata; mature protein SEQ ID NO: 4 (protein, listed as Lucilia sericata)
chain: IVNGVDTTIQAHPYQVSLQTNNGFHFCGGSIISEDIIVTAAHCMQSYKAYQFKVRLGSTEYDNGGELVAVKSFKYHEGYNPETMVNDVAVIKLATPVRESSKVRYVKLAEKTPATGTPAVVTGWGSKCFLFCQTAPKVLQKVEVDIVDEKTCASSEYKYGDDIKETMLCAYAVKKDACQGDSGGPLVANNKLVGVVSWGKGCALAGYPGVYCDVATVRSWIEKTAKSL
proteolytic activity against Suc-Ala-Ala-Phe-AMC [4]: not against Suc-Ala-Ala-Phe-AMC
activation of protease-activated receptor 2 (PAR 2) [5]: activates the protease-activated receptor PAR-2
caseinolytic activity (cleavage of casein) [6]: clearing zone; also recorded: ability to cleave fibrin and casein; also recorded: exhibits proteolytic activity against fibrin, casein
fibrinolytic activity (cleavage of fibrin) [7]: clearing zone; also recorded: ability to cleave fibrin; also recorded: exhibits proteolytic activity against fibrin
Topt [8]: 37 °C
pHopt [8]: 8
pH-range of enzymatic activity ([8]; buffer systems in the range of pH 3-10, Z-Gly-Gly-Arg-AMC): 5-10 pH
specific activity ([8]; fluorometric assay using Z-Gly-Gly-Arg-AMC as substrate): 90 μmol* · min^−1 · mg^−1 enzyme
proteolytic activity against Tosyl-Gly-Pro-Arg-AMC [9]: exhibits proteolytic activity against fibrin, casein and Tosyl-Gly-Pro-Arg-AMC
